The term IC50 denotes the concentration that inhibits the measured activity by half.

Molecules are shown by their SMILES.

Test in all cases: In vitro MMP inhibition, IC50 determination (fluorogenic substrate I)
What all share (assay type): biochemical
Holding throughout (conditions): value outside parentheses (Ki in parenthesis)

One assay deals with T1, Human recombinant MMP-1 (Homo sapiens, UniProt P03956).
T1 construct: made in house; host or cells: MMP-1-transfected HT-1080 cells (spent media)
T1 sequence (P03956 100-469): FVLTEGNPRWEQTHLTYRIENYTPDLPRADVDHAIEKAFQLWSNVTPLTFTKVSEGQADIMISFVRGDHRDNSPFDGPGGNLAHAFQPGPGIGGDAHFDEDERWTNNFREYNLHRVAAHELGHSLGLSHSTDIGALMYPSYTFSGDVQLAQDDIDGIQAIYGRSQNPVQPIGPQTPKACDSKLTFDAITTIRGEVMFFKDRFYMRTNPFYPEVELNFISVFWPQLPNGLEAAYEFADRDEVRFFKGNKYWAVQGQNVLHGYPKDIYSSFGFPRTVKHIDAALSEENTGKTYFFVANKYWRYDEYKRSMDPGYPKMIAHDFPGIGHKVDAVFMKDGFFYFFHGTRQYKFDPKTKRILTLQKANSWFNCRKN
An outline of the steps:
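APMA- or trypsin-activated enzyme, purified from spent media of transfected HT-1080 cells, incubated at room temperature with 4 μM MCA-Pro-Leu-Gly-Leu-Dpa-Ala-Arg-NH2 and graded inhibitor in Tris buffer pH 7.5 (10 mM CaCl2, 0.05% Brij). Cleavage read by fluorescence (ex 328/em 415 nm); IC50 from fluorescence reduction versus inhibitor concentration.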

The next assay concerns the target T2, Human recombinant MMP-2 (Homo sapiens, UniProt P08253).
T2 construct: made in house; host or cells: MMP-2-transfected p2AHT2 cells
T2 sequence (P08253 110-660): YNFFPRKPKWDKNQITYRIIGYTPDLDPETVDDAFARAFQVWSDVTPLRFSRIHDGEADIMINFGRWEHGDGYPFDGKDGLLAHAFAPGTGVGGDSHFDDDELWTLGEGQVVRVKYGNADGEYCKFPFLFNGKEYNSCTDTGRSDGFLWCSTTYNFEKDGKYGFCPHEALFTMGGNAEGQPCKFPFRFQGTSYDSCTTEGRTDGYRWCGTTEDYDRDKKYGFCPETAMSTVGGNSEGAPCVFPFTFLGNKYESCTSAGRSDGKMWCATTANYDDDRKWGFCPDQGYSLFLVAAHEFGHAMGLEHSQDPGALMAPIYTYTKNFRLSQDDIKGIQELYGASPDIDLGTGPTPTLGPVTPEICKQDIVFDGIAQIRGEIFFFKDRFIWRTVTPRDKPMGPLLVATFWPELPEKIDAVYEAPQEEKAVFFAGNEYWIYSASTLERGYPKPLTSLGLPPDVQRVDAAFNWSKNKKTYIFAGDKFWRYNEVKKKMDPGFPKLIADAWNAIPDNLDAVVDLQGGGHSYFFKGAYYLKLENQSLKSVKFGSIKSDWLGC
An outline of the steps:
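APMA- or trypsin-activated recombinant MMP-2 was incubated at room temperature with serial inhibitor dilutions in Tris buffer pH 7.5 (100 mM NaCl, 10 mM CaCl2, 0.05% Brij), with DMSO from 1% stocks, and 4 μM substrate I. Cleavage was read by fluorescence at 328/415 nm; IC50 was taken from the loss of fluorescence versus inhibitor concentration.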

The next assay deals with T3, Human recombinant MMP-9 (Homo sapiens, UniProt P14780).
T3 construct: made in house; host or cells: MMP-9-transfected HT1080 cells (spent media)
T3 sequence (P14780 107-707 limits assumed): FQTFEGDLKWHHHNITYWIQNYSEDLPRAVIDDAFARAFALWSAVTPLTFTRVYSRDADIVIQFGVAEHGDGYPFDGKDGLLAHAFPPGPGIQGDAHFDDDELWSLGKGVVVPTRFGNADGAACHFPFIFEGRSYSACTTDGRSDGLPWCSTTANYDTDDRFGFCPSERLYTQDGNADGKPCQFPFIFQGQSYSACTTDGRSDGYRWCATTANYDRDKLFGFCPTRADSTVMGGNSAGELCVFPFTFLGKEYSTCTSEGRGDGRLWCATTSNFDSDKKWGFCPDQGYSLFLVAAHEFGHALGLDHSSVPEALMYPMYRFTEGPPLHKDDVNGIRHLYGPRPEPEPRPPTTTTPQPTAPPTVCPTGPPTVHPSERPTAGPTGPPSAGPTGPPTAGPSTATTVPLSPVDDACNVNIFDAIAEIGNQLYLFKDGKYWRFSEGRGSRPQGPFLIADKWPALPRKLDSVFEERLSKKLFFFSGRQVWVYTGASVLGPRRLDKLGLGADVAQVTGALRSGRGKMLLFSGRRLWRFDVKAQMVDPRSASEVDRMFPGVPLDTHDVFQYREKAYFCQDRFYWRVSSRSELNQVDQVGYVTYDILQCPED
An outline of the steps:
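MMP-9 proenzyme purified from transfected HT1080 cell media, activated with APMA or trypsin. Compound dilutions in pH 7.5 Tris/NaCl/CaCl2 buffer with 0.05% polyoxyethylene 23 lauryl ether, incubated at room temperature with 4 μM MCA/Dpa substrate I. IC50 from fluorescence loss (ex 328, em 415 nm) versus inhibitor concentration.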

The target in a further assay is T4, Human recombinant MMP-13 (Homo sapiens, UniProt P45452).
T4 construct: made in house; host or cells: baculovirus / insect cells
In outline:
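Fluorescence at 415 nm (excitation 328 nm) reports Gly-Leu cleavage of 4 μM quenched methoxycoumarin peptide substrate I. Human recombinant MMP-13, activated by trypsin or APMA, was incubated at room temperature with varied inhibitor concentrations in pH 7.5 Tris/NaCl/CaCl2 buffer; IC50 derived from reduced fluorescence.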

The next assay concerns the target T5, Human recombinant MMP-14 (Homo sapiens, UniProt P50281).
T5 construct: The catalytic domain enzyme was expressed in E. coli inclusion bodies, solubilized in urea; made in house
In outline: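 Catalytic-domain MMP-14, expressed in E. coli and refolded, activated with APMA or trypsin; compounds incubated at room temperature with 4 μM fluorogenic substrate I (MCA-PLGL-Dpa-AR-NH2) in Tris/NaCl/CaCl2 buffer, pH 7.5. Fluorescence at ex 328/em 415 nm; IC50 from loss of fluorescence versus inhibitor concentration.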

For `O=C(NO)C1(S(=O)(=O)c2ccc(OCCCS(=O)(=O)N3CCc4ccccc4C3)cc2)CCOCC1` [Example 332], the IC50 is 2.46 µM on Human recombinant MMP-1; 0.0036 µM on Human recombinant MMP-2; 0.132 µM at Human recombinant MMP-9; 0.0026 µM at Human recombinant MMP-13; greater than 10 µM at Human recombinant MMP-14.

Regarding `O=C1c2cc(Cl)c(Cl)cc2C(=O)N1CCCOc1ccc(S(=O)(=O)C2(C(=O)NO)CCOCC2)cc1` [Example 333], the 50% inhibitory concentration (IC50) at Human recombinant MMP-1 was greater than 10 µM; on Human recombinant MMP-2, 0.656 µM; on Human recombinant MMP-9 it was 3.24 µM; on Human recombinant MMP-13, 0.0018 µM; at Human recombinant MMP-14 it was greater than 10 µM.

In the case of `O=C(NO)C1(S(=O)(=O)c2ccc(OCCCCN3CCc4ccccc4C3)cc2)CCOCC1` [Example 334], the IC50 on Human recombinant MMP-1 was greater than 10 µM; on Human recombinant MMP-2 it was 0.0164 µM; at Human recombinant MMP-9, 0.866 µM; on Human recombinant MMP-13, 0.0051 µM; on Human recombinant MMP-14, 2.88 µM.

As to `COc1cc2c(cc1OC)C(C)N(C(=O)OCCCCOc1ccc(S(=O)(=O)C3(C(=O)NO)CCOCC3)cc1)CC2` (stereo not shown) [Example 335], the 50% inhibitory concentration (IC50) at Human recombinant MMP-1 is greater than 10 µM; on Human recombinant MMP-2, 0.0023 µM; on Human recombinant MMP-9, 0.172 µM; on Human recombinant MMP-13, 0.0065 µM; on Human recombinant MMP-14, greater than 10 µM.

As for `Cc1cc(C(=O)CCCCOc2ccc(S(=O)(=O)C3(C(=O)NO)CCOCC3)cc2)ccc1OC(C)C` [Example 340], the IC50 on Human recombinant MMP-1 was greater than 10 µM; at Human recombinant MMP-2, 0.253 µM; at Human recombinant MMP-9, 5.59 µM; on Human recombinant MMP-13 it was 0.0019 µM; at Human recombinant MMP-14, greater than 10 µM.

Turning to `O=C(NO)C1(S(=O)(=O)c2ccc(OCCSc3nc4ccccc4s3)cc2)CCOCC1` [Example 341], the IC50 on Human recombinant MMP-1 is greater than 10 µM; on Human recombinant MMP-2, 0.0168 µM; at Human recombinant MMP-9, 1.12 µM; at Human recombinant MMP-13, 0.0005 µM; at Human recombinant MMP-14, 6.4 µM.

Consider `O=C(CCCCOc1ccc(S(=O)(=O)C2(C(=O)NO)CCOCC2)cc1)c1cccc2ccccc12` [Example 342], for which the half-maximal inhibitory concentration (IC50) at Human recombinant MMP-1 was greater than 10 µM; at Human recombinant MMP-2, 0.0412 µM; on Human recombinant MMP-9 it was 2.17 µM; on Human recombinant MMP-13, 0.002 µM; on Human recombinant MMP-14 it was greater than 10 µM.

Turning to `COc1ccc(-c2nnc(CCCCOc3ccc(S(=O)(=O)C4(C(=O)NO)CCOCC4)cc3)o2)cc1` [Example 346], the IC50 is greater than 10 µM at Human recombinant MMP-1; 0.0026 µM at Human recombinant MMP-2; 2.01 µM at Human recombinant MMP-9; 0.0009 µM at Human recombinant MMP-13; greater than 10 µM at Human recombinant MMP-14.

Take `O=C(NO)C1(S(=O)(=O)c2ccc(OCCCCS(=O)(=O)C3CCCCC3)cc2)CCOCC1` [Example 348]: the IC50 on Human recombinant MMP-1 was greater than 10 µM; on Human recombinant MMP-2, 0.0618 µM; at Human recombinant MMP-9, greater than 10 µM; on Human recombinant MMP-13, 0.0044 µM; on Human recombinant MMP-14 it was greater than 10 µM.

On to `O=C(CCCOc1ccc(S(=O)(=O)C2(C(=O)NO)CCOCC2)cc1)Nc1ccccc1O` [Example 350], for which the IC50 is 3.28 µM at Human recombinant MMP-1; 0.0026 µM on Human recombinant MMP-2; 0.271 µM on Human recombinant MMP-9; 0.0005 µM at Human recombinant MMP-13; 2.67 µM at Human recombinant MMP-14.

For the molecule `COc1ccc(C(=O)CCCCOc2ccc(S(=O)(=O)C3(C(=O)NO)CCOCC3)cc2)c(OC)c1` [Example 351], the IC50 on Human recombinant MMP-1 was greater than 10 µM; at Human recombinant MMP-2, 0.0341 µM; on Human recombinant MMP-9 it was 2.22 µM; at Human recombinant MMP-13 it was 0.001 µM; at Human recombinant MMP-14, greater than 10 µM.

For the molecule `O=C(CCCOc1ccc(S(=O)(=O)C2(C(=O)NO)CCOCC2)cc1)c1cccc2ccccc12` [Example 352], the IC50 at Human recombinant MMP-1 was greater than 10 µM; on Human recombinant MMP-2, 0.0336 µM; on Human recombinant MMP-9 it was 3.6 µM; at Human recombinant MMP-13 it was 0.002 µM; on Human recombinant MMP-14 it was 6.24 µM.

As for `O=C(CCCOc1ccc(S(=O)(=O)C2(C(=O)NO)CCOCC2)cc1)c1cccc(-c2ccccc2)c1` [Example 353], the IC50 at Human recombinant MMP-1 is greater than 10 µM; on Human recombinant MMP-2, 0.0251 µM; at Human recombinant MMP-9, 1.15 µM; on Human recombinant MMP-13, 0.0018 µM; at Human recombinant MMP-14 it was greater than 10 µM.

Take `CC(C)(C)c1ccc(C(=O)CCCOc2ccc(S(=O)(=O)C3(C(=O)NO)CCOCC3)cc2)cc1` [Example 355]: the IC50 on Human recombinant MMP-1 was greater than 10 µM; at Human recombinant MMP-2, 0.0174 µM; at Human recombinant MMP-9, 1.07 µM; at Human recombinant MMP-13, 0.0011 µM; on Human recombinant MMP-14, 3.62 µM.

Regarding `O=C(CCCOc1ccc(S(=O)(=O)C2(C(=O)NO)CCOCC2)cc1)c1ccc(-c2ccccc2)cc1` [Example 356], the IC50 on Human recombinant MMP-1 is greater than 10 µM; at Human recombinant MMP-2, 0.0331 µM; on Human recombinant MMP-9 it was 1.65 µM; at Human recombinant MMP-13, 0.0008 µM; at Human recombinant MMP-14 it was greater than 10 µM.

Take `CN(C)c1ccc(NC(=O)CCCOc2ccc(S(=O)(=O)C3(C(=O)NO)CCOCC3)cc2)cc1` [Example 357]: the IC50 on Human recombinant MMP-1 is greater than 10 µM; at Human recombinant MMP-2, 0.0102 µM; on Human recombinant MMP-9, 0.952 µM; at Human recombinant MMP-13, 0.0017 µM; at Human recombinant MMP-14, greater than 10 µM.

In the case of `O=C(NO)C1(S(=O)(=O)c2ccc(OCCCCCn3cnc4ccccc43)cc2)CCOCC1` [Example 359], the IC50 at Human recombinant MMP-1 is greater than 10 µM; at Human recombinant MMP-2, 0.0023 µM; on Human recombinant MMP-9, 1.18 µM; at Human recombinant MMP-13 it was 0.001 µM; at Human recombinant MMP-14, 7.96 µM.

In the case of `O=C(NO)C1(S(=O)(=O)c2ccc(OCCCCCN3CCc4ccccc4C3)cc2)CCOCC1` [Example 360], the IC50 at Human recombinant MMP-1 was greater than 10 µM; on Human recombinant MMP-2 it was 0.0097 µM; at Human recombinant MMP-9, 0.547 µM; at Human recombinant MMP-13, 0.0064 µM; on Human recombinant MMP-14, 0.962 µM.

Consider `CN(C)c1ccc(C(=O)NCCCOc2ccc(S(=O)(=O)C3(C(=O)NO)CCOCC3)cc2)cc1` [Example 361], for which the IC50 at Human recombinant MMP-1 was 6 µM; at Human recombinant MMP-2 it was 0.5 µM; at Human recombinant MMP-9, greater than 10 µM; on Human recombinant MMP-13 it was 0.0005 µM; on Human recombinant MMP-14, greater than 10 µM.

With `CCCCOc1ccc(C(=O)NCCCOc2ccc(S(=O)(=O)C3(C(=O)NO)CCOCC3)cc2)cc1` [Example 364], the IC50 on Human recombinant MMP-1 was greater than 10 µM; on Human recombinant MMP-2, 0.25 µM; on Human recombinant MMP-9 it was greater than 10 µM; on Human recombinant MMP-13 it was 0.0018 µM; at Human recombinant MMP-14 it was greater than 10 µM.

With `COC(=O)c1ccc(C(=O)NCCCOc2ccc(S(=O)(=O)C3(C(=O)NO)CCOCC3)cc2)cc1` [Example 368], the IC50 at Human recombinant MMP-1 was greater than 10 µM; at Human recombinant MMP-2 it was 0.15 µM; at Human recombinant MMP-9, 9 µM; at Human recombinant MMP-13, 0.0008 µM; on Human recombinant MMP-14, greater than 10 µM.

As for `Cc1ccc(C(=O)NCCCOc2ccc(S(=O)(=O)C3(C(=O)NO)CCOCC3)cc2)cc1C` [Example 371], the IC50 at Human recombinant MMP-1 was greater than 10 µM; on Human recombinant MMP-2, 1.1 µM; at Human recombinant MMP-9, 9.6 µM; on Human recombinant MMP-13, 0.0024 µM; at Human recombinant MMP-14 it was greater than 10 µM.

For `Cc1ccc(C(=O)NCCCOc2ccc(S(=O)(=O)C3(C(=O)NO)CCOCC3)cc2)c(C)c1` [Example 373], the IC50 on Human recombinant MMP-1 was greater than 10 µM; on Human recombinant MMP-2, 0.94 µM; on Human recombinant MMP-9 it was 3.94 µM; on Human recombinant MMP-13, 0.007 µM; at Human recombinant MMP-14, greater than 10 µM.

(Values after patent US20040024024A1, “Aromatic sulfone hydroxamates and their use as protease inhibitors” (priority 2001, published 2004).)
